Data set [1] relates to HCT116 cells. As to the kind of experiment: Flow cytometry cell cycle analysis. The class given is cell-based, human. The following applies: HCT116, 24 h. As to the method: HCT116 cells were seeded onto 6-well plates (500,000 cells) and cultured overnight in complete medium at 37° C. with 5% CO2. After treatment with DMSO control or CL16 at the indicated concentration for 24 h, cells were harvested by trypsin digestion, washed with PBS, and fixed in 70% cold ethanol on ice for 30 minutes. The cells were then centrifuged at 250g for 5 min and resuspended in staining buffer (PBS with 0.05% Triton X-100) containing propidium iodide (50 μg/mL) and RNase (100 μg/mL) for 30 min at 37° C. in the dark. The cells were then filtered through a 40 μm strainer and analyzed by flow cytometry. Representative FACS plots were developed to illustrate the gating strategy in studying cell cycle. The NovoCyte Advanteon BVYG analyzer was used to acquire cell events, and the data were processed using NovoExpress software.
The molecular mechanisms of anticancer effects from CL16 were investigated. […] Immunoblotting of cell cycle checkpoint proteins in HCT116 cells underwent CL16 treatment for 24 h.

The next data set relates to orthotopic SL4 CRC. The data set can be described thus: Immunocompetent orthotopic mouse CRC model (SL4 intracecal). The class given is in vivo. An excerpt: FIG. 13B is a graph showing the weight of tumors from the mice treated with vehicle (n=7) or CL16 (n=8) at the end point of the investigation of CL16 treatment. FIGS. 13C-13H are graphs showing the scores of the immunohistochemistry staining of CD3 (FIG. 13C), CD4 (FIG. 13D), CD8 (FIG. 13E), Ki67 (FIG. 13F), cleaved caspase-3 (FIG. 13G) and VEGFR2 (FIG. 13H) on tumor tissues from the vehicle- or CL16-treated mice, FIG. 131 is a graph showing the changes in the body weight of mice with orthotopic SL4 CRC model treated with solvent vehicle or CL16 through i.p. injection. Antitumor effects of CL16 in an immunocompetent, orthotopic mouse CRC model, which was established by the inoculation of mouse CRC cells, SL4, intracecally were examined (FIG. 20). […] Immunohistochemistry staining of CD3, CD4, CD8, Ki67 was conducted, with cleaved caspase-3 and VEGFR2 on tumor tissues from the vehicle- or CL16-treated mice. […] To the best of our knowledge, this is the first reported study showing an increase in immunity through RhoA inhibition in CRC cells by a small molecule compound.

For data set [2], the system named is HCT116 cells. The data set can be described thus: Apoptosis assay with Caspase-3/7 Green Detection Reagent. The data set is classed as cell-based, human. Conditions: HCT116, 24 h. As to the method: HCT116 cells were seeded onto a poly-D-lysine coated Ibidi 8-well chamber slide (20,000 cells) and cultured overnight in complete medium at 37° C. with 5% CO2. The cells were treated with DMSO control, Rhosin or CL16 at the indicated concentration along with 5 μM of CellEvent™ Caspase- 3/7 green in serum-free medium for 24 h. Prior to imaging, the medium was exchanged for Hanks' Balanced Salt Solution (HBSS). Confocal fluorescence microscopy was performed using a Zeiss laser scanning microscope 880 with a 20× water-immersion objective lens and ZEN 2.3 (Black Version) software (Carl Zeiss). CellEvent™ Caspase- 3/7 green was excited by a 488 nm diode laser and emission was collected on a META detector between 490 and 525 nm. Image analysis was performed on ImageJ where the number of cells expressing fluorescence within the field was counted against the total number of cells to report the percentage of apoptotic cells. The average percentage was calculated from 3 separate images from the same well.
The effects of CL16 treatment on cell cycle checkpoint proteins were investigated with immunoblotting of the cell cycle checkpoint proteins in SW620 and HT29 cells after CL16 treatment for 24 h. […] Caspase- 3/7 Green Detection Reagent was used to study apoptosis in HCT116 cells treated with Rhosin by confocal fluorescence imaging. […]

In the next data set the target is Rac1 (Homo sapiens, UniProt P63000). The data set can be described thus: Gel-based competitive ABPP, second screening on Rac1. The class given is binding. As to the method: Recombinant human RhoA (0.1 μg; ab101594) was pretreated with cysteine-reactive compounds or DMSO for 1 hour at room temperature, followed by incubation with iodoacetamide-rhodamine (IA-Rh; 1 μM) for 1 hour at room temperature. The reaction was then quenched by boiling in sampling buffer. Samples were subjected to SDS-PAGE to separate proteins bands. In-gel fluorescence intensity was measured with a Chemidoc using setting for Rhodamine. Gel was subsequently stained with silver stain (Pierce) for visualization of protein content and covalent modification. Band intensity was quantified using ImageJ.
CL16 was identified for its strong and specific binding with RhoA in covalent ligand screening experiment by ABPP. ABPP is known as a powerful platform for covalent ligand screening, particularly for the identification of lead compounds targeting new hotspots for therapy. Competitive gel-based activity-based protein profiling (ABPP) experiment was performed on purified RhoA protein for screening its interactions with a library of cysteine-reactive covalent ligands with acrylamide or chloroacetamide warheads. RhoA protein for the first screening and on Rac1 and Cdc42 for the second screening to identify lead compounds with specific binding onto RhoA Cys16. […] The reaction mixture was then resolved by SDS-PAGE and in-gel fluorescence was imaged (FIG. 1A). […]

Molecules are shown by their SMILES.

For the compound `O=C(CCl)N1N=C(c2cc3ccccc3o2)CC1c1ccco1` (stereo not shown) [CL16], the “G2 phase cell population” value in the data set on HCT116 cells [1] is “significant increase in G2 phase cell population”. The body weight result in the data set on orthotopic SL4 CRC (i.p. injection) is reported as “no significant changes in the body weight”. Moreover, the tumor weight entry in the data set on orthotopic SL4 CRC (i.p. injection, end point) is “significantly lower tumor weight”. Also, the “organ damage in kidney tissue” value in the data set on orthotopic SL4 CRC (treated mice) is given as “no organ damages in the kidney tissue”. Besides, in the data set with orthotopic SL4 CRC (treated vs vehicle), the “Ki67 in tumor tissues” value was “decrease in Ki67” and the “cleaved caspase-3 immunohistochemistry in tumor tissues” value is “elevated level”. Besides, in the data set on orthotopic SL4 CRC (tumor tissues), the “CD3 immunohistochemistry of tumor tissues” value was “increases”; the “CD4 immunohistochemistry of tumor tissues” value is “increases”; the “CD8 immunohistochemistry of tumor tissues” value was “increases”; the “VEGFR2 level, immunohistochemistry” value is reported as “decrease in VEGFR2 level”. Also, the “tumor metastasis to liver” value in the data set on orthotopic SL4 CRC (vs control mice) was “prohibited the tumor metastasis”. Moreover, in the data set on HCT116 cells [2], the cell apoptosis result is reported as “mediated cell apoptosis”. On Rac1, the “binding with Rac1” value is recorded as “no observable binding”.

These data come from patent US20250073209A1, “COVALENT TARGETING OF RhoA FOR CANCER THERAPY” (The University of Hong Kong, priority 2023, published 2025).
